In assay [1] the target is T1, MMP-2 (Homo sapiens, UniProt P08253).
T1 construct: made in house; host or cells: MMP-2-transfected p2AHT2 cells
T1 sequence (P08253 110-660): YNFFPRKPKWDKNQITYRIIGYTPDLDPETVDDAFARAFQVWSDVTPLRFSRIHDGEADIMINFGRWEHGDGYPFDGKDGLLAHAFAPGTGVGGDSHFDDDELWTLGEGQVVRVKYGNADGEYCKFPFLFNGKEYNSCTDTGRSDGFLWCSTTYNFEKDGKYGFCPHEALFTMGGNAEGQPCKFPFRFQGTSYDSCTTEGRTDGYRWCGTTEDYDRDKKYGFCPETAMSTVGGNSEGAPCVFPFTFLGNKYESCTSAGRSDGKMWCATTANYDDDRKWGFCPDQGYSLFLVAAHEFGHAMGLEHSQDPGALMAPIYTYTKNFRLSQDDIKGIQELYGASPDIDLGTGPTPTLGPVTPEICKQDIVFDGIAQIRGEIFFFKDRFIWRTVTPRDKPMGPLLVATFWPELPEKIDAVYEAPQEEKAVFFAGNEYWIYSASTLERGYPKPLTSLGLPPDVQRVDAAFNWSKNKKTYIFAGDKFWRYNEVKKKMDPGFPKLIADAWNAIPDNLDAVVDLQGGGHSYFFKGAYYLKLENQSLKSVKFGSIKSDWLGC
The experiment in a line: In vitro MMP inhibition, Ki determination (fluorogenic substrate II). The format is biochemical. As to conditions: value outside parentheses; read-out: MMP-2 Ki.

The target in assay [2] is T2, MMP-1 (Homo sapiens, UniProt P03956).
T2 construct: made in house; host or cells: MMP-1-transfected HT-1080 cells (spent media)
T2 sequence (P03956 100-469): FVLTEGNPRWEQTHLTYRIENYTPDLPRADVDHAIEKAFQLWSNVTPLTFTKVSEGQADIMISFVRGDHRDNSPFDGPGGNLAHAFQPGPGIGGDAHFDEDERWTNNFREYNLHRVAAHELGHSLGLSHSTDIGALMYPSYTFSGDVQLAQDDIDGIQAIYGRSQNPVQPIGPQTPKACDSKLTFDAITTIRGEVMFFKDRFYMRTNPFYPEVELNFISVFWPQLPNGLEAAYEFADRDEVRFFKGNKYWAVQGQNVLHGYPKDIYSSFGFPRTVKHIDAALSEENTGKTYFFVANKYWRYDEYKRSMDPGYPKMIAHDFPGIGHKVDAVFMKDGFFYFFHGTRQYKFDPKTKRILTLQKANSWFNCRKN
The assay is described as above. It counts as biochemical. As to conditions: value outside parentheses; read-out: MMP-1 Ki.

Ki data for 34 compounds are collected here from US20050209278A1, “Piperidinyl- and piperazinyl-sulfonylmethyl hydroxamic acids and their use as protease inhibitors” (priority 2002, published 2005).

As a reminder, the Ki is a dissociation constant, usually derived from enzyme kinetics or from competition with a known ligand. Turning to `CCCCCc1ccc(N2CCN(S(=O)(=O)C3(C(=O)NO)CCN(C4CC4)CC3)CC2)cc1` [Example 272], the Ki in assay [1] was 0.662 nM; in assay [2], more than 10000 nM.
Regarding `CCCCOc1ccc(N2CCN(S(=O)(=O)C3(C(=O)NO)CCN(C(=O)C(C)C)CC3)CC2)cc1` [Example 273], the inhibition constant (Ki) in assay [1] was 0.622 nM; in assay [2], more than 10000 nM.
On the same counts, the results for `CCCCOc1ccc(N2CCN(S(=O)(=O)C3(C(=O)NO)CCN(C(=O)CC)CC3)CC2)cc1` [Example 274] are 0.826 nM and more than 10000 nM.
For the compound `CCCCOc1ccc(N2CCN(S(=O)(=O)C3(C(=O)NO)CCN(c4ccc(C)nn4)CC3)CC2)cc1` [Example 275], the results for the Ki in assay [1] and in assay [2] were 0.381 nM and more than 10000 nM, respectively.
On the same counts, the results for `CCCCOc1ccc(N2CCN(S(=O)(=O)C3(C(=O)NO)CCNCC3)CC2)cc1` [Example 276] are 5.7 nM and more than 10000 nM.
On the same counts, the results for `CCCCOc1ccc(N2CCN(S(=O)(=O)C3(C(=O)NO)CCN(C(=O)c4ccccn4)CC3)CC2)cc1` [Example 277] are 0.42 nM and more than 10000 nM.
The corresponding values for `CCCCOc1ccc(N2CCN(S(=O)(=O)C3(C(=O)NO)CCN(C(=O)CCCC)CC3)CC2)cc1` [Example 278] are 0.81 nM and more than 10000 nM.
As for `CC(C)CCOc1ccc(N2CCN(S(=O)(=O)C3(C(=O)NO)CCOCC3)CC2)cc1` [Example 279], the Ki was 1.11 nM in assay [1] and more than 10000 nM in assay [2].
As for `CCCCOc1ccc(N2CCN(S(=O)(=O)C3(C(=O)NO)CCN(C)CC3)CC2)cc1` [Example 280], the Ki was 2.76 nM in assay [1] and more than 10000 nM in assay [2].
As to `CCCCOc1ccc(N2CCN(S(=O)(=O)C3(C(=O)NO)CCN(c4ccc(Cl)nn4)CC3)CC2)cc1` [Example 281], the results for the inhibitory constant (Ki) in assay [1] and in assay [2] were 0.769 nM and more than 10000 nM, respectively.
The corresponding values for `CCCCOc1ccc(N2CCN(S(=O)(=O)C3(C(=O)NO)CCN(C(C)=O)CC3)CC2)cc1` [Example 282] are 0.5 nM and more than 10000 nM.
The corresponding values for `CCCCOc1ccc(N2CCN(S(=O)(=O)C3(C(=O)NO)CCN(c4ccc(O)nn4)CC3)CC2)cc1` [Example 283] are 0.37 nM and 9790 nM.
The corresponding values for `CCCCOc1ccc(N2CCN(S(=O)(=O)C3(C(=O)NO)CCN(CCOC)CC3)CC2)c(F)c1` [Example 284] are 0.81 nM and more than 10000 nM.
Take `CCCCOc1ccc(N2CCN(S(=O)(=O)C3(C(=O)NO)CCN(Cc4ccccc4)CC3)CC2)cc1F` [Example 285]: the results for the Ki in assay [1] and in assay [2] were 1.55 nM and more than 10000 nM, respectively.
On the same counts, the results for `CCCCOc1ccc(N2CCN(S(=O)(=O)C3(C(=O)NO)CCNCC3)CC2)cc1F` [Example 286] are 5.17 nM and more than 10000 nM.
On the same counts, the results for `COCCN1CCC(C(=O)NO)(S(=O)(=O)N2CCN(c3ccc(Oc4ccccc4)cc3)CC2)CC1` [Example 287] are 9.44 nM and more than 10000 nM.
For `CCCCOc1ccc(N2CCN(S(=O)(=O)C3(C(=O)NO)CCN(C(=O)CN)CC3)CC2)cc1` [Example 292], the Ki in assay [1] is 1.74 nM; in assay [2] it was more than 10000 nM.
On the same counts, the results for `CCCCOc1ccc(N2CCN(S(=O)(=O)C3(C(=O)NO)CCN(Cc4cccnc4)CC3)CC2)cc1F` [Example 293] are 0.486 nM and more than 10000 nM.
Consider `CCCCOc1ccc(N2CCN(S(=O)(=O)C3(C(=O)NO)CCN(c4ccc(C)cc4)CC3)CC2)cc1` [Example 295], for which the Ki in assay [1] was 8.76 nM; in assay [2], more than 10000 nM.
On the same counts, the results for `CCCCOc1ccc(N2CCN(S(=O)(=O)C3(C(=O)NO)CCN(c4ccc(C)cc4)CC3)CC2)cc1F` [Example 296] are 6.73 nM and more than 10000 nM.
On the same counts, the results for `COCCOc1ccc(N2CCN(S(=O)(=O)C3(C(=O)NO)CCN(C4CC4)CC3)CC2)cc1F` [Example 297] are 1.36 nM and more than 10000 nM.
The corresponding values for `CCCCOc1ccc(N2CCN(S(=O)(=O)C3(C(=O)NO)CCN(CC4CC4)CC3)CC2)cc1` [Example 298] are 3.27 nM and more than 10000 nM.
As to `Cc1cc(N2CCN(S(=O)(=O)C3(C(=O)NO)CCOCC3)CC2)ccc1OC(C)C` [Example 299], the results for the inhibition constant Ki in assay [1] and in assay [2] were 22.5 nM and more than 10000 nM, respectively.
On the same counts, the results for `CS(=O)(=O)c1ccc(N2CCN(S(=O)(=O)C3(C(=O)NO)CCOCC3)CC2)cc1` [Example 300] are 67.1 nM and more than 10000 nM.
On the same counts, the results for `CCCCOc1ccc(N2CCN(S(=O)(=O)C3(C(=O)NO)CCN(C4CC4)CC3)CC2)cc1` [Example 301] are 0.88 nM and more than 10000 nM.
On the same counts, the results for `C#CCN1CCC(C(=O)NO)(S(=O)(=O)N2CCN(c3ccc(OCCCC)cc3)CC2)CC1` [Example 303] are 1.68 nM and more than 10000 nM.
Turning to `CCCCCc1ccc(C2CCN(S(=O)(=O)C3(C(=O)NO)CCOCC3)CC2)nc1` [Example 305], the figures for the Ki in assay [1] and in assay [2] were 0.407 nM and 6700 nM, respectively.
On the same counts, the results for `O=C(NO)C1(S(=O)(=O)N2CCC(c3ccc(Br)cn3)CC2)CCOCC1` [Example 306] are 0.444 nM and 602 nM.
As for `CCCCc1ccc(C2CCN(S(=O)(=O)C3(C(=O)NO)CCOCC3)CC2)nc1` [Example 307], the Ki in assay [1] turned out to be 0.505 nM; in assay [2], 6810 nM.
On the same counts, the results for `O=C(NO)C1(S(=O)(=O)N2CCC(c3ccc(-c4ccc(F)cc4F)cn3)CC2)CCOCC1` [Example 308] are 6.36 nM and 6780 nM.
On the same counts, the results for `COCCN1CCC(C(=O)NO)(S(=O)(=O)N2CCC(c3ccc(CCC(F)(F)F)cc3)CC2)CC1` [Example 309] are 0.328 nM and more than 10000 nM.
On the same counts, the results for `COCCN1CCC(C(=O)NO)(S(=O)(=O)N2CCC(c3ccc(CCCC(F)(F)F)cc3)CC2)CC1` [Example 310] are 0.919 nM and more than 10000 nM.
Take `COCCN1CCC(C(=O)NO)(S(=O)(=O)N2CCC(c3ncc(CC(C)C)s3)CC2)CC1` [Example 311]: the Ki was 103 nM in assay [1] and more than 10000 nM in assay [2].
On the same counts, the results for `COCCN1CCC(C(=O)NO)(S(=O)(=O)N2CCC(c3ccc(CCC(F)(F)C(F)(F)F)cc3)CC2)CC1` [Example 312] are 0.52 nM and more than 10000 nM.
